Data on six compounds can be found in patent US20230041065A1, “METHODS FOR GENERATING HEMATOPOIETIC STEM CELLS” (The Brigham and Women`s Hospital, Inc., priority 2019, published 2023).

Where no end group is shown, it is not given here.

The test system of assay [1] is zebrafish embryos. Put plainly: HSPC marker expression in zebrafish embryos (whole mount in situ hybridization). The class given is in vivo. Here is the method:
(§1) Zebrafish embryos were treated with the following chemical modulators in E3 fish media: 100 uM L-NAME (Fisher Scientific), 50 uM Digitoxigenin (Sigma), 25-50 uM Yoda1 (Cayman Chemical), 1 uM Nanaomycin (Nana; Fisher Scientific), 100 uM Gadolinium chloride (GdCl3; Sigma), 5-10 uM 4α-phorbol 12, 13-didecanaote (4Apdd; Sigma), or GSK205 (10 uM).
Whole mount in situ hybridizations was performed as previously described.

Assay [2] has as its system E11.5 AGM cells. Put plainly: Hematopoietic CFU and FACS assays on E11.5 AGM cells. It is filed as cell-based, mouse. To be noted: for GEMM formation: 50 μM. How it is done:
Pulsating blood vessels like conditions were stimulated in vitro using Flexcell FX-4000 machine. To analyze roles of pharmacological targets in regulating the endothelial-to-HSC transition, mouse embryo-derived AGM or whole mouse embryo were exposed ex vivo with biomechanical stretching, chemicals, or drugs. Next, hematopoietic colony formation assays were performed by incubating mouse AGM-derived cells in StemCell M3434 media for seven days. Serial transplantation of AGM-derived HSCs in lethally irradiated SJL mice were performed. The stem cell frequency upon biomechanical stretching was analyzed using a limiting dilution assay. To characterize properties of AGM-HSC-derived blood cells in primary transplants, percentage chimerism and reconstitution was measured using FACS, globin transcripts were analyzed using quantitative reverse transcriptase-PCR, myeloperoxidase amount was measured using PicoKine ELISA kit, TCR-β rearrangement was analyzed using PCR for TCR-β locus, pre-immune IG detection was analyzed using Thermo-Fisher Mouse Ig Isotyping kit, and delayed-type hypersensitivity was analyzed by injecting sheep RBC (Rockland Immunochemicals) in the footpad of pre-sensitized mice. E11.5 AGM were harvested from C57BL6/J Cd45.2 mouse embryos, and a single cell suspension of a three-embryo equivalent of cells was seeded on each well of a BioFlex six-well culture plate ([…]). We cultured cells overnight with the application of cyclic strain (Flexcell® FX4000TM Tension System) and/or treatment with chemical modulators (2-100 μM Yoda1, 1 μM Nanaomycin, 100 μM Gdcl3, 1 uM GsMT×4, 5-20 μM 4αPDD, 10 uM GSK205). Next, harvested cells were used to perform transplant, fluorescence-activated cell sorting (FACS) analysis, and colony-forming unit (CFU) assays. For CFU assays, cells from AGM explant or ex vivo were plated in MethoCult GF M3434 media (StemCell Technologies). Seven days after seeding, we analyzed their capacity to make granulocyte, erythroid, macrophage, megakaryocyte (GEMM), granulocyte macrophage (GM), granulocyte (G), macrophage (M), and erythroid (E) colonies.

For assay [3], the system named is cd41:eGFP+ HSCs emerging from flk1:mCherry+ endothelial cells. Put plainly: Time-lapse confocal imaging of cd41:eGFP+ HSCs emerging from flk1:mCherry+ endothelial cells in transgenic embryos. It is filed as in vivo, zebrafish. Conditions: embryos concurrently treated with or without Yoda1. How it is done: Mice were purchased Cd45.2 (C57BL6/J) and Cd45.1 (SJL) from The Jackson Laboratory and zebrafish morpholinos from GeneTools. Microangiography was performed by injecting fluorescent-labeled dextran dye in the atrium of zebrafish heart and its passage was recorded using live imaging. Immunostaining of zebrafish heart and mouse AGM were analyzed using an inverted fluorescent microscope. Cardiac tamponade, heart rate, and pulse frequency were analyzed in zebrafish embryos using bright field imaging or time-lapse confocal microscopy. The movement of red blood cells in blood vessels was analyzed as well as the endothelial-to-HSC transition in zebrafish transgenic embryos using time-lapse confocal imaging.
as §1
cd41:eGFP were crossed with flk1:mCherry zebrafish and flk1:mCherry with lcr:eGFP zebrafish and injected morpholino in their transgenic embryos. […] The relative movement of lcr:eGFP^+ red blood cells was analyzed in the context of flk1:mCherry^+ endothelium. We performed image analysis using Imaris (Bitplane) software.

As for `[Cl][Gd]([Cl])[Cl]` [GdCl3, Gadolinium chloride], the HSPC expression entry in assay [1] (zebrafish embryos) is reported as “attenuated HSPC expression in zebrafish embryos to the level of sih-MO embryos”. In assay [2] (10% cyclic strain plus stretch-activated receptor inhibitor), the “formation of multipotent hematopoietic progenitors potentiated by 10% cyclic strain” value is listed as “attenuated”.
Turning to `Cc1oc(-c2ccccc2)cc1C(=O)O` [Jedi1], in assay [2], the GEMM formation result is “enhances GEMM formation”.
In the case of `Cc1oc(-c2cccs2)cc1C(=O)O` [Jedi2], the GEMM formation result in assay [2] is on record as “enhances GEMM formation”.
`COC(=O)[C@@H](N)CCCNC(=N)N[N+](=O)[O-]` [L-NAME]: the HSPC formation entry in assay [1] (cdh5-MO embryos) is on record as “does not impact HSPC formation in cdh5-MO embryos”; in assay [1] (control embryos), “attenuates HSPC formation in control embryos”.
In the case of `CC1OC(CC(=O)O)CC2=C1C(=O)c1c(O)cccc1C2=O` (centres unmarked) [Nanaomycin], the HSPC marker expression result in assay [1] (control and cdh5-MO embryos) is “attenuated HSPC marker expression in control and cdh5-MO embryos”. In addition, the “hematopoietic colony formation stimulated by cyclic strain or Yoda1” value in assay [2] (cyclic strain or Yoda1 in the presence of Nanaomycin) is listed as “attenuates the endothelial-to-HSC transition stimulated by circumferential stretch or Piezo1 activation”. Also, the “phenotype of hematopoietic cells after treatment” value in assay [2] (stretch- or Piezo1 activation-treated AGM cells) is given as “reverts hematopoietic cells into phenotypic endothelial cells”. For the same compound, the “Piezo1 activation (Yoda1)-mediated increase in HSC formation” value in assay [3] is recorded as “attenuated the Piezo1 activation-mediated increase in HSC formation”.
For “GsMtX4: pharmacological inhibition of Piezo1 (GCLEFWWKCNPNDDKCCRPKLKCSKLFKLCNFSF; ends and bridges not checked; cysteine pairing not given here; UniProt Q7YT39 47-80, looked up)”, in assay [2] (cyclic strain plus Piezo1 inhibitor), the “hematopoietic colony formation induced by cyclic strain” value is “attenuates the inductive impact of cyclic strain on the endothelial-to-HSC transition”.
